# From EP2444396A1, “PHOTOPROTECTIVE COMPOSITION” (Apoteknos Para La Piel, S.L., priority 2009, dated 2010)
# Where “and” joins values, the source holds several entries; their conditions need not be identical. Equal values may be shown once. Marks after values point to notes of the source that are not given here.
# Key:
# [1] = UV spectrum: wavelengths of maximum absorption and absorbance (Cecil 2021 UV-Visible Spectrophotometer); format: physicochemical; settings: for UV spectrum A (a.u): absorbance at the maximum of the same line; for UV spectrum λ (nm): wavelengths of the maximum absorption
# ERβ = target: T1, ERβ (Homo sapiens, UniProt Q92731); test: Estrogenicity reporter gene bioassay (luciferase activity) in HELN-ERβ cells; format: cell-based
# T1 construct: expressed in transfected cells; host or cells: HeLa (HELN-ERβ)
# Source text: Briefly, the transactivation bioassay (Reporter gene assay) used are based on the use of breast and uterine cancer cell lines transfected with different native or modified hormone receptors. The resulting cell lines further contain a reporter gene regulated by estrogens through the estrogen response element, the globin promoter and the luciferase gene.
# HELN-ERα and HELN-ERβ cell lines were obtained by means of transfecting the HeLa uterine cancer cell line. In a first phase, said cells were transfected with an estrogen sensitive response element and then with the estrogen receptor alpha or beta (ERα or ERβ). The selection of clones resistant to geneticin and puromycin was performed using a concentration of 1 mg/mL and 0.5 mg/mL, respectively. The maintenance medium as well as the experimental medium of these 2 cell lines is DMEM F12 without phenol red supplemented with 6% of FBS (lacking of estrogens), 1% of penicillin / streptomycin, 1 mg/mL of geneticin and 0.5 µg/mL of puromycin.
# The cells were seeded at a density of 5x10^4 cells per well in white opaque 96 well plates in 150 µL of experimental medium. After 8 hours, the compounds to be assayed (p-nitrolophine and estradiol) were prepared (concentrated 4x) in the same medium and were added to each well (50 µl). The cells were incubated for 16 hours at 37°C. At the end of the incubation, the medium was removed and replaced with fresh medium containing […] luciferin [at that concentration, luciferin diffuses into cell producing a luminescent signal which is stable after 5 minutes and for at least 2 hours]. The plates were then introduced in the luminometer to measure the luminescence for 2 seconds. A YicroBeta Trilux luminometer (EGG Wallac) apparatus was used to detect luciferase activity.
# The assays were preformed in quadruple for each concentration (0.01-10 µM) in at least three independent experiments. […] The values of luciferase activity obtained were analyzed using the one-way ANOVA statistic test. The differences were considered significant when P was less than […] (P < 0.05).
# [2] = tested on: MCF-7 breast cancer cell line; test: E-Screen cell proliferation test; format: cell-based, human; settings: MCF-7 cells, over control
# Source text: The E-Screen proliferation test is based on the use of MCF-7 breast cancer cell line. The MCF-7 cells [which endogenously expressed the estrogen receptor alpha (ERα)], respond to the treatment with estradiol increasing its proliferative rate, synthesizing new proteins and transcribing certain specific genes. […] The test compares the number of cells or the cell proliferation obtained after 6 days of culture. The cells grow in culture medium supplemented with human serum lacking of estrogens, in the presence and/or absence of estradiol as well as of the chemical compounds suspected of having estrogenic activity. The E-Screen test was performed following the methodology previously described by Soto et al. ["An in culture bioassay to assess the estrogenicity of xenobiotics. […] Health Perspect. 103:844-850; 1995]. […] The assay was ended after 144 hours of subculture (exponential phase) after drawing out the medium and fixing the cells for the application of sulforhodamine-B technique. Finally, the cell growth for each experimental group is related to the growth obtained for the negative control (absence of hormone) and with respect to estradiol (positive control). Once the E-Screen test is performed, the maximum cell proliferation rate induced by the compound also known as proliferative effect (PE) was established by calculating the ratio existing between the maximum proliferation rate obtained for the compound and the proliferation rate of the negative control. The proliferation data corresponding with the successive dilutions of the compound were transformed after the application of the correction factor for the dilution of each experimental point, the arithmetic mean of the data obtained being calculated. Another parameter is the relative proliferative efficiency (RPE). […] In this assay, the estrogenicity E-Screen test commonly used to identify the hormonal activity of compounds interacting specifically with the estrogen receptor alpha (ERα), has been used. The assays were performed in triplicate for each concentration (range: 300-0.003 µg/ml) in at least three independent experiments.
# [3] = tested on: MCF-7 breast cancer cell line; test: E-Screen cell proliferation test; format: cell-based, human; parameters: dose or concentration left out as unconfirmed; settings: 144 h
# [4] = tested on: inflammation induced by phorbol 12-myristate-13-acetate (PMA); test: Topical anti-inflammatory activity: ear inflammation induced by PMA in mice; format: in vivo; parameters: RE / RE Average: unit not given here; settings: 4 hours
# Procedure: The topical anti-inflammatory activity of p-nitrolophine has been analyzed in this study since erythema is a inflammatory process. Specifically, the inhibition of inflammation induced by phorbol 12-myristate-13-acetate (PMA) was evaluated and compared with an anti-inflammatory product of reference (indometacin). 37 mice were divided into the following groups: positive control group (PMA 0.5 mg); negative control group (indometacin 0.5 mg); treated groups (0.5 mg and 1 mg of p-nitrolophine). All the solutions were prepared using acetone (ppa) as vehicle. 20 µL of solution of 25 mg/mL of phorbol 12-myristate-13-acetate (PMA) [Fluka cod 79346] (10 µL in each face) was administered in the right ear of each mouse. Immediately after administering the PMA, nothing more was administered into the positive control group; 20 µL of the solution of 25 mg/mL of indometacin was administered to the negative control group, and 20 µL of the solution of 25 or 50 mg/mL of 4-nitrolophine was administered in the same manner to the treated groups. Animals having no lesions or skin and ear irritation were used.
# After 4 hours of post-treatment, the mice were sacrificed through cervical fracture and a portion of 6 mm in diameter was obtained from each ear with a hollow punch which was weight in precision analytical balance. The difference in weight (Δ) between the right ear (treated) and the left ear (non treated) for each animal and for each group were calculated. The percentage of inhibition (% inh) was estimated and calculated according to the following equation: % inh = 100(1-Δt/Δc) [formula] wherein Δt represents the difference in the treated groups and Δc the difference for the […].
# In order to analyze the results, an one way ANOVA and Dunnet test for multiple comparison was used, values of P<0.05 were considered significant. A software, Graphpad Instat Version 3.06, was used for such purposes.
# [5] = tested on: Erythema induced by UVB radiation in mouse; test: Photoprotection: erythema induced by UVB radiation in mouse skin; format: in vivo; parameters: key to Erythema induced by UVB radiation in mouse: presence (+); absence (-); settings: individual animals No. 1-10; 0.5% gel topical, about 2.5 kJ/m^2 UVB, 24 hours after exposure
# Source text: The effect of p-nitrolophine and m-nitrolophine on erythema due to exposing the mouse skin to an irradiation source at maximum in the UVB region has been studied in these assays. The results obtained have been compared with the effect of 4-methylbenzylidene camphor (P5000) a substance considered as a UVB solar filter and with the effect of butyl methoxydibenzoylmethane (P1789) an UVA type filter, both products being commonly used in antisolar cosmetics.
# 35 male mice weighing more than 20 grams have been used. After receiving them, the animals were acclimated for 7 days at the place where the assays were preformed, they were being placed in a cage with controlled temperature (22°C), with relative humidity between 50% and 75%, replacing fresh filtered air approximately 10 times per hour and with 12 h light/dark cycles (7.00 - 19.00 light and from 19.00 to 7.00 dark). For this period and during the experimental period, the animals were fed ad libitum with standard diet for rodents and running water as drink.
# The animals were randomly distributed into 4 experimental groups according to Table 7. The products to be tested were directly used, applying them in the form of a gel on an area of the skin such that each animal form its own control.
# The test was performed following the method described by Winder et al. ["A study of Pharmacological influences on ultraviolet erythema in guinea pigs". Arch. Int Pharmacodyn, 116:261-292; 1958] and by other authors [Wendy et al. "The local antinociceptive and topical antiinflamatory effects of propyl gallate in rodents". Br. J. Pharmacol, 58:573 -581; 1976; Katiyar et al. "Protective Effects of Silymarin Against Photocarcinogenesis in a Mouse Skin Model". J Natl Cancer Inst 89:556-65; 1997] with slight modifications. The day […] the assay, as much hair as possible were removed from the animals by applying a layer of commercial hair-removing cream to remove all the trace of hair and to leave the skin of the back completely bare. The rest of the hair-removing cream were removed by means of washing and rinsing with running water and the animals were the returned to their corresponding cages where they remained until the following day.
# On the day of the assay, the substances to be assayed were blindly applied on the back of the previously labelled animals following a random pattern (randomized). After applying the corresponding treatments, the animals were placed and pinned to the presentation platform of the equipment. The animals were then placed 8 cm from an ultraviolet light source of 4*40w with 313 nm of fundamental emission and a range comprised approximately between 290 and 350 nm and with an anti-UVC filter. The emission spectrum of said light source is depicted in Figure 1.
# The exposure was maintained until all the animals have received an approximate total dose of 2.5 kJ/m^2. The dose of irradiation applied was determined by means of a ultraviolet light detector, the response curve of which is shown in Figure 2.
# Twenty four hours after ending the exposure, the back of the animals was photographed and they were returned to their cages. The evaluation of erythema was performed by means of a positive/negative criterion, the percentage of protected animals being obtained. The statistic significance of the difference was evaluated by means of the non-parametric Fisher Test.
# [6] = Absorption spectrum in methanol (195 - 400 nm); format: physicochemical; settings: peak wavelength, 10 mg/ml
# Procedure: In order to determine the absorption spectrum, a solution of 10 mg/ml of methanol was prepared from each of the substances. The methanol in turn was used to adjust the zero absorbance in each of the wavelengths in the range of 195 - 400 nm.
# T1 sequence (Q92731 whole entry, species assumed): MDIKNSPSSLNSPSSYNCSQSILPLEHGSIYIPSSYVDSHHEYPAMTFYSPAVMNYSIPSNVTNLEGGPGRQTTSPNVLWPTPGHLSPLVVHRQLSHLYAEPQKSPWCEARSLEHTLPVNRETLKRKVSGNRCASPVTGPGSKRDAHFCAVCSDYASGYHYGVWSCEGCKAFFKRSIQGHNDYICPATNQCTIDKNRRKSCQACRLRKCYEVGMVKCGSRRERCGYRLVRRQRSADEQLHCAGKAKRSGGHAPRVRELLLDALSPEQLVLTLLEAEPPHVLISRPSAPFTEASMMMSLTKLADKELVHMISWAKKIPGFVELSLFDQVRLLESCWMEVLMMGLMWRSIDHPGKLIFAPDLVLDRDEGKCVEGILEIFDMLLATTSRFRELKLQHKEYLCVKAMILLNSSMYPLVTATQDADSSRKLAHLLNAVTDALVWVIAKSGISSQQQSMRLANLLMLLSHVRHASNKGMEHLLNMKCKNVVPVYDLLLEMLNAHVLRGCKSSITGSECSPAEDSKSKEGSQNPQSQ
UV spectrum A (a.u) [1],UV spectrum λ (nm) [1],SMILES,further results
0.817 a.u and 1.093 a.u,209.0 nm and 296.0 nm,"c1ccc(-c2nc(-c3ccccc3)c(-c3ccccc3)[nH]2)cc1 [2,4,5-triphenyl-1H-imidazole]",
1.015 a.u and 1.364 a.u,225.0 nm and 300.5 nm,"Oc1ccc(-c2nc(-c3ccccc3)c(-c3ccccc3)[nH]2)cc1 [2-(4-hydroxyphenyl)-4,5-diphenyl-1H-imidazole]",
,202.0 nm and 282.5 nm and 398.5 nm,"O=[N+]([O-])c1ccc(/C=C/c2nc(-c3ccccc3)c(-c3ccccc3)[nH]2)cc1 [(E)-2-(4-nitrostyryl)-4,5-diphenyl-1H-imidazole]",
,235.2 nm and 344.4 nm,"C(=C\c1nc(-c2ccccc2)c(-c2ccccc2)[nH]1)/c1ccccc1 [(E)-2-styryl-4,5-diphenyl-1H-imidazole]",

# More lines, now with the values behind:
SMILES,UV spectrum A (a.u) [1],UV spectrum λ (nm) [1],further results
"O=[N+]([O-])c1ccc(-c2nc(-c3ccc([N+](=O)[O-])cc3)c(-c3ccc([N+](=O)[O-])cc3)[nH]2)cc1 [2,4,5-tris(4-nitrophenyl)-1H-imidazole]",1.410 a.u and 1.923 a.u,236.0 nm and 370.0 nm,
"Clc1ccc(-c2nc(-c3ccccc3)c(-c3ccccc3)[nH]2)cc1 [2-(4-chlorophenyl)-4,5-diphenyl-1H-imidazole]",1.066 a.u and 1.371 a.u,231.5 nm and 308.0 nm,
"Fc1ccc(-c2nc(-c3ccccc3)c(-c3ccccc3)[nH]2)cc1 [2-(4-fluorophenyl)-4,5-diphenyl-1H-imidazole]",1.117 a.u and 1.536 a.u,224.0 nm and 297.5 nm,
"COc1ccc(-c2nc(-c3ccccc3)c(-c3ccccc3)[nH]2)cc1 [2-(4-methoxyphenyl)-4,5-diphenyl-1H-imidazole]",,252.5 nm and 297.5 nm,
"O=[N+]([O-])c1ccc(-c2nc3c4ccccc4c4ccccc4c3[nH]2)cc1 [2-(4-nitrophenyl)-1H-phenanthro[9,10-d]imidazole]",,202.0 nm and 256.0 nm and 388.5 nm,
"CN(C)c1ccc(-c2nc(-c3ccccc3)c(-c3ccccc3)[nH]2)cc1 [2-[4-(N,N-dimethylamino)phenyl]-4,5-diphenyl-1H-imidazole]",2.032 a.u and 2.692 a.u,209.5 nm and 322 nm,
"C[C@]12CC[C@@H]3c4ccc(O)cc4CC[C@H]3[C@@H]1CC[C@@H]2O [E2, 17β-estradiol, reference compound]",,,"activity at 0.01 µM (ERβ): 100%; maximum cell proliferation rate [2]: about 6.2 ± 0.3; Proliferative effect (PE) Mean [3]: 6, 62*"
"COc1ccc2c(c1)c(CC(=O)O)c(C)n2C(=O)c1ccc(Cl)cc1 [Indometacin, reference compound]",,,"% inhibition [4]: 87.7** (q = 7.6) %; Average (Δ = RE - LE) ([4]; Dose (mg/ear) 0.5): 0.61; LE Average ([4]; left ear (non treated), group average, 0.5 mg group): 6.7; RE Average ([4]; right ear (treated), group average, 0.5 mg): 7.4; LE ([4]; weight of 6 mm portion of left ear (non treated), individual mice, 0.5 mg group): 6.2 and 6.4 and 6.9 (2×) and 6.7 (3×) and 7.6 and 5.5 and 7.2; RE ([4]; weight of 6 mm portion of right ear (treated), individual mice, 0.5 mg): 6.7 and 7.2 (2×) and 6.8 (2×) and 10 and 6.2 (2×) and 7.4 and 9.1"
"Cc1ccc(C=C2C(=O)C3(C)CCC2C3(C)C)cc1 (stereo not drawn) [P5000, 4-methylbenzylidene camphor, reference compound]",,,Erythema induced by UVB radiation in mouse [5]: -; maximum absorption [6]: 295 nm
